The source of these data is PMC2453323 (PLoS Pathogens, 2008).

In experiment [1] the target is neuraminidase of A(H1N1) clinical isolate 0814/07 (Influenza A virus, UniProt D5F1R0). Format: biochemical.
The target of experiment [2] is neuraminidase of A(H1N1) clinical isolate 0974/08 (Influenza A virus, UniProt G3LYQ1). It is filed as biochemical.
Experiment [3] deals with neuraminidase of A(H1N1) clinical isolate 0692/07 (Influenza A virus (H1N1), UniProt A8C8J7). Format: biochemical.
Experiment [4] concerns the target neuraminidase of A(H1N1) clinical isolate 0650/04 (Influenza A virus (H1N1), UniProt B4YYP0). Briefly: biochemical.
The target of experiment [5] is neuraminidase of A/Solomon Islands/3/2006(H1N1) (SI06) (Influenza A virus, UniProt B4URD9). It is filed as biochemical.
Experiment [6] concerns the target neuraminidase of A/New Caledonia/20/99(H1N1) (NC99) (Influenza A virus, UniProt Q7TG96). Briefly: biochemical. It is filed as biochemical.
The target of experiment [7] is neuraminidase of the 5 pre-2007–2008 H1N1 viruses (Influenza A virus, UniProt B4URD9). It is filed as biochemical. The settings on record: read-out: Mean Km, group Mean.
The target in experiment [8] is neuraminidase of A(H1N1) clinical isolate 0611/07 (Influenza A virus (H1N1), UniProt D5F1R0). Format: biochemical.
Experiment [9] has as its target neuraminidase of A(H1N1) clinical isolate 0286/07 (Influenza A virus (H1N1), UniProt D5F1R0). It is filed as biochemical.
For experiment [10], the target named is neuraminidase of A(H1N1) clinical isolate 1149/08 (Influenza A virus, UniProt G3LYQ1). Format: biochemical.
For experiment [11], the target named is neuraminidase of the 6 sensitive H1N1 viruses from the 2007–2008 season (Influenza A virus, UniProt D5F1R0). Format: biochemical. The settings on record: read-out: Mean Km, group Mean.
Experiment [12] concerns the target neuraminidase of A(H1N1) clinical isolate 1951/06 (Influenza A virus, UniProt B4URD9). It is filed as biochemical.
The target of experiment [13] is neuraminidase of A(H1N1) clinical isolate 0497/07 (Influenza A virus (H1N1), UniProt D5F1R0). Format: biochemical.

As for `CC(=O)N[C@@H]1[C@@H](O)C[C@](Oc2ccc3c(C)cc(=O)oc3c2)(C(=O)O)O[C@H]1C(O)[C@H](O)CO` (stereo partly shown) [MUNANA], the Km in experiment [1] was 9 µM; in [2] it was 10.4 µM; in [3], 31.5 µM; in experiment [4], 25.6 µM; in [5], 25.1 µM; in [6], 27.4 µM. Besides, the Km in [7] was 28 µM; in experiment [8] it was 8 µM; in experiment [9] it was 8.5 µM; in [10] it was 10.4 µM; in [11], 9 ± 1.2 µM; in experiment [12], 29.5 µM. In [13], the Km came to 7.5 µM.

As for `CC(=O)N[C@H]1[C@H]([C@H](O)[C@H](O)CO)OC(C(=O)O)=C[C@@H]1N=C(N)N` [Zana, zanamivir], affinity in experiment [4] was put at a Ki of 200 pM.

`CCOC(=O)C1=C[C@@H](OC(CC)CC)[C@H](NC(C)=O)[C@@H](N)C1` [OC, oseltamivir]: the Ki in [4] was determined as 200 pM; in [6], 190 pM.
